Measured values as given in US20230322779A1 (priority 2020, published 2023).
Read-outs that look alike come from different tables or passages of the source.

Tests used:
[1] = test system: SARS-CoV-2 (βCoV/KOR/KCDC03/2020); assay: Dose-response curve analysis by immunofluorescence, anti-SARS-CoV-2 activity in Calu-3 cells; assay type: cell-based
SARS-CoV-2 B.1.1.7 = assay: SARS-CoV-2 in primary human bronchial cells at air liquid interface (HAEC-ALI), vRNA of apical wash by RT-qPCR; assay type: cell-based
[2] = test system: SARS-CoV-2 nLUC reporter virus; assay: microbe, parasite or virus in culture; assay type: cell-based; conditions: for antiviral activity against SARS-CoV-2 reporter virus in A549-hACE2 cells: 10 to 0.002 μM
in vitro = conditions: human, A549-hACE2 cells, uninfected
Calu-3 cells = assay: Cell viability by nucleus counting in the Calu-3 dose-response assay; conditions: 0.0025 to 50 μM
[3] = Severe acute respiratory syndrome coronavirus 2, 48 h

SMILES	antiviral activity against SARS-CoV-2 in Calu-3 cells [1]	inhibition of vRNA in apical wash fluid (SARS-CoV-2 B.1.1.7; 0.37 μM and lower, HAEC-ALI)	inhibition of vRNA in apical wash fluid (SARS-CoV-2 B.1.1.7; 1.1 μM, day 9, HAEC-ALI)	inhibition of vRNA in apical wash fluid (SARS-CoV-2 B.1.1.7; 3 μM, day 4-11, HAEC-ALI)	inhibition of vRNA in apical wash fluid (SARS-CoV-2 B.1.1.7; 10 μM, all timepoints (day 2-11), HAEC-ALI)	antiviral against SARS-CoV-2 (overall, HAEC-ALI) (SARS-CoV-2 B.1.1.7; primary human bronchial cells, air liquid interface)	IC50 [2]	antiviral activity against SARS-CoV-2 reporter virus in A549-hACE2 cells [2]	IC50 [2, 3]	CC50 at 48 h (in vitro)	toxicity in Calu-3 cells (Calu-3 cells)	inhibition of vRNA in apical wash fluid (SARS-CoV-2 B.1.1.7; 3 μM, all timepoints (day 2-11), HAEC-ALI)
FC(F)(F)c1cc(C(F)(F)F)c2ccc3nc(-c4nnco4)cn3c2n1 [Example 1, 2-[2,4-bis(trifluoromethyl)imidazo[1,2-a]1,8-naphthyridin-8-yl]-1,3,4-oxadiazole]	activity in the μM range	No inhibition was observed	statistically significant inhibition	statistically significant inhibition	statistically significant inhibition	antiviral against SARS-CoV-2 when used in the μM range	1710 nM	has antiviral activity against SARS-CoV-2 reporter virus when used in the μM range	> 1000 nM	> 10000 nM	Neither compound showed toxicity	–
FC(F)(F)c1nc(C(F)(F)F)c2ccc3nc(-c4nnco4)cn3c2n1 [Example 9, 2-(2,4-bis(trifluoromethyl)imidazo[1′2′:1,6]pyrido[2,3-d]pyrimidin-8-yl)-1,3,4-oxadiazole]	activity in the μM range	–	–	–	–	–	–	has antiviral activity against SARS-CoV-2 reporter virus when used in the μM range	> 1000 nM	> 10000 nM	Neither compound showed toxicity	–
N#C[C@@]1(c2ccc3c(N)ncnn23)O[C@H](CO)[C@@H](O)[C@H]1O [GS-441524, reference compound]	–	–	–	–	–	–	–	–	–	–	–	statistically significant inhibition
